Source: ChEMBL document CHEMBL5370623, “Discovery of Quinazoline-2,4(1H,3H)-dione Derivatives Containing a Piperizinone Moiety as Potent PARP-1/2 Inhibitors─Design, Synthesis, In Vivo Antitumor Activity, and X-ray Crystal Structure Analysis” (J Med Chem, 2023)
≈ marks a conversion by molar mass, not a printed value. Calls of active or inactive are those of the source. The rule behind the calls is not given here.

Tests used:
[1] = molecular target: T1, Poly [ADP-ribose] polymerase 1 (Homo sapiens, UniProt P09874); assay: Inhibition of human recombinant PARP1 expressed in Escherichia coli BL21(DE3) incubated for 1 hr by ELISA assay
[2] = molecular target: Poly [ADP-ribose] polymerase 2 (Homo sapiens, UniProt Q9UGN5); assay: Inhibition of human recombinant PARP2 expressed in Escherichia coli BL21(DE3) incubated for 1 hr by ELISA assay
[3] = tested on: MX1; assay: Cytotoxicity against human MX1 cells […] assessed as inhibition of cell growth measured after 72 hrs by MTT assay; type: functional, cell-based; settings: MX1, 72 h
[4] = tested on: MX1; assay: Potentiation factor, ratio of IC50 for cytotoxicity against human MX1 cells to IC50 for cytotoxicity against human MX1 cells in presence of temozolomide; type: functional
[5] = molecular target: T1, Poly [ADP-ribose] polymerase 1; assay: Inhibition of human PARP1 in human MX1 cells assessed as enzyme-DNA trapping activity at 1 uM incubated for 24 hrs by Western blot analysis; type: cell-based
[6] = Tmax in BALB/c mouse at 25 mg/kg, po measured upto 24 hrs by LC-MS/MS analysis; type: ADME, organism-based; settings: in vivo
[7] = Aqueous solubility of the compound; type: physicochemical
[8] = Half life in BALB/c mouse at 25 mg/kg, po measured upto 24 hrs by LC-MS/MS analysis; type: ADME, organism-based; settings: in vivo
[9] = Cmax in BALB/c mouse at 25 mg/kg, po measured upto 24 hrs by LC-MS/MS analysis; type: ADME, organism-based; set-up: time < 24 hrs, dose 25 mg/kg, route po; settings: in vivo
[10] = AUC (0 to t) in BALB/c mouse at 25 mg/kg, po measured upto 24 hrs by LC-MS/MS analysis; type: ADME, organism-based; set-up: time < 24 hrs, dose 25 mg/kg, route po; settings: in vivo
[11] = AUC (0 to infinity) in BALB/c mouse at 25 mg/kg, po measured upto 24 hrs by LC-MS/MS analysis; type: ADME, organism-based; set-up: dose 25 mg/kg, time < 24 hrs, route po; settings: in vivo
[12] = MRT (0 to t) in BALB/c mouse at 25 mg/kg, po measured upto 24 hrs by LC-MS/MS analysis; type: ADME, organism-based; settings: in vivo
[13] = MRT (0 to infinity) in BALB/c mouse at 25 mg/kg, po measured upto 24 hrs by LC-MS/MS analysis; type: ADME, organism-based; settings: in vivo

T1 sequence (P09874 whole entry): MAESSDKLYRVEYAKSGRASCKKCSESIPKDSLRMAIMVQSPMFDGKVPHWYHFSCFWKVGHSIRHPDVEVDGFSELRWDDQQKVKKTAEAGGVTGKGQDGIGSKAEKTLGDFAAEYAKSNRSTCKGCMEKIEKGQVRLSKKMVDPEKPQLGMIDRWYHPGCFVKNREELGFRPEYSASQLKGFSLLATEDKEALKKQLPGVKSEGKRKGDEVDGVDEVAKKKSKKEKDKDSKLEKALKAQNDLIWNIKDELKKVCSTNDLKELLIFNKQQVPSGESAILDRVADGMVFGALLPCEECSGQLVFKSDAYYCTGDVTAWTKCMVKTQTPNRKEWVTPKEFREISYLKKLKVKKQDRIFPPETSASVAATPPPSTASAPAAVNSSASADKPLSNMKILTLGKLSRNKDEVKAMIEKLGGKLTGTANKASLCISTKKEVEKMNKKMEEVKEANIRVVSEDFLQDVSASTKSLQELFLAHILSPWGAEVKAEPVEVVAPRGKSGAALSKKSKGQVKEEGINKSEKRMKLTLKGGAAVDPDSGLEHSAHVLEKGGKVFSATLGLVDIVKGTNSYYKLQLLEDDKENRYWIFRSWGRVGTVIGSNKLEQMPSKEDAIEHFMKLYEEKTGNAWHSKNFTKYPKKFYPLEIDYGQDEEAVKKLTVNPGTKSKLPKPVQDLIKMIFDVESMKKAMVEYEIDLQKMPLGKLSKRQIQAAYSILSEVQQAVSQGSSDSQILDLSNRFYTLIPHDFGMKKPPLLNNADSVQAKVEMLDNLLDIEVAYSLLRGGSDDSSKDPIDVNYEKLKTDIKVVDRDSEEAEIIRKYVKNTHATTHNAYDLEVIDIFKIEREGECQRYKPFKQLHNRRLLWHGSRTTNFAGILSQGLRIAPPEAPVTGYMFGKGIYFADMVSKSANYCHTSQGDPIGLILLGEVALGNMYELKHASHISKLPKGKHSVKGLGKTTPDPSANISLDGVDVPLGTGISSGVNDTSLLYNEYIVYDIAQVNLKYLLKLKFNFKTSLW
Poly [ADP-ribose] polymerase 2, sequence (Q9UGN5 whole entry): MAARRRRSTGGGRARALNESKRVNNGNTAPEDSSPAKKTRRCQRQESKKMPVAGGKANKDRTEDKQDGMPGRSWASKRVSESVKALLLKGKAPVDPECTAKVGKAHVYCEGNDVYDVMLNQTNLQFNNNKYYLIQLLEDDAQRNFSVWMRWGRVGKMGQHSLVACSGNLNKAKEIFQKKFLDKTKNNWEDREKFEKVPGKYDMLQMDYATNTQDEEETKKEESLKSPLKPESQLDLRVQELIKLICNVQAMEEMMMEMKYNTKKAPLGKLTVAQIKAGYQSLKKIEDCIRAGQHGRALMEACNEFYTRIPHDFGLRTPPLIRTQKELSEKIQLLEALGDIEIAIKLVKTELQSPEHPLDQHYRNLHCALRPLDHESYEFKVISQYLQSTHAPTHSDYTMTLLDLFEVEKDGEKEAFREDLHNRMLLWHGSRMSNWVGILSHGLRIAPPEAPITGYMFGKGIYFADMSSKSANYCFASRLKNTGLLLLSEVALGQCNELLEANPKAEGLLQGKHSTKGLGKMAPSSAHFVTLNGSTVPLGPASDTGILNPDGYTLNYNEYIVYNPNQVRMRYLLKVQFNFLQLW

Row | Compound | IC50 [1] | IC50 [2] | IC50 [3] | PF50 [4] | PARP1-DNA trapping activity [5] | other results
1 | C#CCN1CCN(C(=O)c2cc(Cn3c(=O)[nH]c(=O)c4ccccc43)ccc2F)CC1=O | 15.5 nM | 2.92 nM | 28.5 nM | >10 |  | 
2 | O=C(c1cc(Cn2c(=O)[nH]c(=O)c3ccccc32)ccc1F)N1CC(=O)N2CCCC2C1 (configuration not stated) | 17.2 nM | 9.2 nM | 46.1 nM | >10 |  | 
3 | CC(C)CCN1CCN(C(=O)c2cc(Cn3c(=O)[nH]c(=O)c4ccccc43)ccc2F)CC1=O | 3.03 nM | 0.92 nM | 12.4 nM | >10 |  | 
4 | COCCN1CCN(C(=O)c2cc(Cn3c(=O)[nH]c(=O)c4ccccc43)ccc2F)CC1=O | 4.86 nM | 0.83 nM | 61.3 nM |  | Active | 
5 | COC(=O)CN1CCN(C(=O)c2cc(Cn3c(=O)[nH]c(=O)c4ccccc43)ccc2F)CC1=O | 8.88 nM | 2.67 nM | 45 nM | 4.64 |  | 
6 | CC(C1CCCC1)N1CCN(C(=O)c2cc(Cn3c(=O)[nH]c(=O)c4ccccc43)ccc2F)CC1=O (configuration not stated) | 3.67 nM | 0.22 nM | 1.18 nM | >10 | Active | 
7 | O=C(c1cc(Cn2c(=O)[nH]c(=O)c3ccccc32)ccc1F)N1CCN(c2ccccc2)C(=O)C1 | 1.02 nM | 0.62 nM | 4.88 nM | >10 | Active | 
8 | O=C1CN(C(=O)c2cc(Cn3c(=O)[nH]c(=O)c4ccccc43)ccc2F)CCN1 | 4.33 nM | 1.88 nM | > 100 nM | 3.23 |  | 
9 | O=C1CN(C(=O)c2cc(Cn3c(=O)[nH]c(=O)c4ccccc43)ccc2F)CCN1CC(F)(F)F | 3.79 nM | 1.87 nM | 18.6 nM | >10 |  | 
10 | CC(C1CCCCC1)N1CCN(C(=O)c2cc(Cn3c(=O)[nH]c(=O)c4ccccc43)ccc2F)CC1=O (configuration not stated) | 4.92 nM | 0.26 nM | 3.65 nM | >10 |  | 
11 | CC(C)=CCN1CCN(C(=O)c2cc(Cn3c(=O)[nH]c(=O)c4ccccc43)ccc2F)CC1=O | 9.85 nM | 2.35 nM | 6.54 nM | >10 | Active | 
12 | CC(C)CN1CCN(C(=O)c2cc(Cn3c(=O)[nH]c(=O)c4ccccc43)ccc2F)CC1=O | 4.68 nM | 0.38 nM | 22.4 nM | >10 |  | 
13 | O=C1CN(C(=O)c2cc(Cn3c(=O)[nH]c(=O)c4ccccc43)ccc2F)CCN1Cc1ccccc1 | 2.54 nM | 0.77 nM | 3.12 nM | >10 | Active | 
14 | O=C1CN(C(=O)c2cc(Cn3c(=O)[nH]c(=O)c4ccccc43)ccc2F)CCN1CC1CCCC1 | 2.46 nM | 0.1 nM | 23.2 nM | >10 | Active | 
15 | CCC(CC)N1CCN(C(=O)c2cc(Cn3c(=O)[nH]c(=O)c4ccccc43)ccc2F)CC1=O | 3.86 nM | 0.79 nM | 0.65 nM | >10 |  | Tmax [6]: 4.8 min; solubility [7]: 30.4 µg/mL (≈ 65.1 µM); half-life [8]: 30.6 min; Cmax [9]: 515 ng/mL; AUC(0-t) at 24 h [10]: 316 ng·h/mL; AUC(0-inf) [11]: 340 ng·h/mL; MRT last at 24 h [12]: 32.4 min; MRT inf [13]: 42 min
16 | CN(C)CCN1CCN(C(=O)c2cc(Cn3c(=O)[nH]c(=O)c4ccccc43)ccc2F)CC1=O | 2.39 nM | 6.75 nM | > 100 nM |  |  | 
17 | CCC(C)N1CCN(C(=O)c2cc(Cn3c(=O)[nH]c(=O)c4ccccc43)ccc2F)CC1=O (configuration not stated) | 3.76 nM | 0.44 nM | 33.9 nM | >10 |  | 

Row | Compound | IC50 [1] | IC50 [2] | IC50 [3] | PF50 [4] | PARP1-DNA trapping activity [5] | other results
18 | O=C(c1cc(Cn2c(=O)[nH]c(=O)c3ccccc32)ccc1F)N1CCN(C2CCCCC2)C(=O)C1 | 2.85 nM | 0.33 nM | 5.79 nM | >10 |  | 
19 | O=C(c1cc(Cn2c(=O)[nH]c(=O)c3ccccc32)ccc1F)N1CC(=O)N2CCCCC2C1 (configuration not stated) | 9.85 nM | 3.41 nM | 32.6 nM | >10 |  | 
20 | CCC(C)CN1CCN(C(=O)c2cc(Cn3c(=O)[nH]c(=O)c4ccccc43)ccc2F)CC1=O (configuration not stated) | 3.02 nM | 1.32 nM | 10.4 nM | >10 |  | 
21 | CC(C)(C)CN1CCN(C(=O)c2cc(Cn3c(=O)[nH]c(=O)c4ccccc43)ccc2F)CC1=O | 3.45 nM | 0.33 nM | 23.2 nM | >10 |  | 
22 | O=C(c1cc(Cn2c(=O)[nH]c(=O)c3ccccc32)ccc1F)N1CCN(C2CCCC2)C(=O)C1 | 1.4 nM | 0.29 nM | 13.2 nM | >10 | Active | 
23 | C=CCN1CCN(C(=O)c2cc(Cn3c(=O)[nH]c(=O)c4ccccc43)ccc2F)CC1=O | 4.18 nM | 0.71 nM | > 100 nM |  |  | 
24 | O=C1CN(C(=O)c2cc(Cn3c(=O)[nH]c(=O)c4ccccc43)ccc2F)CCN1CCC1CC1 | 2.08 nM | 2.15 nM | 4.15 nM | >10 | Active | 
25 | CN1CCN(C(=O)c2cc(Cn3c(=O)[nH]c(=O)c4ccccc43)ccc2F)CC1=O | 3.81 nM | 5.62 nM | 51 nM | 1.18 |  | 
26 | CCN1CCN(C(=O)c2cc(Cn3c(=O)[nH]c(=O)c4ccccc43)ccc2F)CC1=O | 7.59 nM | 1.22 nM | 23.3 nM | >10 |  | 
27 | O=C1CN(C(=O)c2cc(Cn3c(=O)[nH]c(=O)c4ccccc43)ccc2F)CCN1CC1CC1 | 9.75 nM | 2.63 nM | 14.9 nM | >10 |  | 
28 | CCCCN1CCN(C(=O)c2cc(Cn3c(=O)[nH]c(=O)c4ccccc43)ccc2F)CC1=O | 2.72 nM | 0.49 nM | 20 nM | >10 |  | 
29 | CC(C)C(C)N1CCN(C(=O)c2cc(Cn3c(=O)[nH]c(=O)c4ccccc43)ccc2F)CC1=O (configuration not stated) | 9 nM | 1.86 nM | 1.67 nM | >10 | Active | 
30 | CCCCCN1CCN(C(=O)c2cc(Cn3c(=O)[nH]c(=O)c4ccccc43)ccc2F)CC1=O | 2.71 nM | 0.94 nM | 331 nM | >10 | Active | 
31 | CCCN1CCN(C(=O)c2cc(Cn3c(=O)[nH]c(=O)c4ccccc43)ccc2F)CC1=O | 11.8 nM | 3.48 nM | 16.5 nM | >10 |  | 
32 | O=C1CN(C(=O)c2cc(Cn3c(=O)[nH]c(=O)c4ccccc43)ccc2F)CCN1CC1CCCCC1 | 2.38 nM | 0.24 nM | 9.39 nM | >10 | Active | 
33 | CC(C)N1CCN(C(=O)c2cc(Cn3c(=O)[nH]c(=O)c4ccccc43)ccc2F)CC1=O | 5.06 nM | 1.72 nM | 30.9 nM | >10 |  | 
34 | O=C1CN(C(=O)c2cc(Cn3c(=O)[nH]c(=O)c4ccccc43)ccc2F)CCN1CCCO | 17.1 nM | 6.31 nM | 60.2 nM | 4.38 |  | 
